Experiments:
[1] = Mass spectrometric analysis of mitochondria from mice given mito2HOBA in drinking water; assay type: in vivo
From the text: Mito2HOBA is a water-soluble compound which can be supplied in the media and provided to animals in the drinking water.

aortic superoxide = test: Aortic superoxide by HPLC (mitoSOX, DHE) in angiotensin II-infused mice; assay type: in vivo, mouse
Protocol: (§1) FIGS. 12A-D show the effect of mito2HOBA supplementation on mitochondrial superoxide (A), vascular superoxide (B), endothelial nitric oxide (C) and endothelial-dependent relaxation (D) in angiotensin II-infused mice. Mitochondrial and vascular O2⋅ was measured by mitochondria-targeted superoxide probe mitoSOX (1 μM) or untargeted superoxide probe DHE (50 μM) using HPLC.46 Endothelial nitric oxide was analyzed by NO spin trap Fe(DETC)2 and ESR.47 C57B1/6J mice were infused with Ang II and mito2HOBA was provided in the drinking water (0.1 g/L). […] Results are mean±SEM. *P<0.01 vs Sham, **P<0.01 vs Ang II (n=6).
Mouse aortic segments were loaded with DHE (50 μM) or mitochondria-targeted mitoSOX (1 μM) in KHB buffer by 30-minute incubation in a tissue culture incubator at 37° C. […] The tissue homogenate was passed through a 0.22 μm syringe filter and methanol filtrates were analyzed by HPLC according to previously published protocols. The superoxide specific product 2-hydroxyethidium was detected using a C-18 reverse-phase column (Nucleosil 250 to 4.5 mm) and a mobile phase containing 0.1% trifluoroacetic acid and an acetonitrile gradient (from 37% to 47%) at a flow rate of 0.5 ml/min. 2-Hydroxyethidium was quantified by fluorescence detector using an emission wavelength of 580 nm and an excitation of 480 nm as described previously.

endothelial nitric oxide = test: Aortic nitric oxide by ESR and Fe(DETC)2 in angiotensin II-infused mice; assay type: in vivo, mouse; conditions: Ang II plus mito2HOBA
Protocol: as §1
Nitric oxide production in aortas was quantified by ESR and colloid Fe(DETC)2 as we have described previously. All ESR samples were placed in quartz Dewar (Corning, New York, NY) filled with liquid nitrogen. ESR spectra were recorded using an EMX ESR spectrometer (Bruker Biospin Corp., Billerica, MA) and a super high Q microwave cavity. The ESR settings were as follows: field sweep, 160 Gauss; microwave frequency, 9.42 GHz; microwave power, 10 milliwatts; modulation amplitude, 3 Gauss; scan time, […]; time constant, 5.2 sec; and receiver gain, 60 dB (n=4 scans).

mouse aortic rings = test: Vasodilatation study of aortic rings (endothelial-dependent relaxation); assay type: in vivo; conditions: Ang II plus mito2HOBA
Protocol: as §1
Isometric tension studies were performed on 2 mm mouse aortic rings dissected free of perivascular fat from C57B/6J mice. Studies were performed in a horizontal wire myograph (DMT, Aarhus, Denmark, models 610 M and 620 M) containing physiological salt solution with the composition of 130 mM NaCl, 4.7 mM KCl 1.2 mM MgSO4, 1.2 mM KH2PO4, 15 mM NaHCO3, 5.5 mM glucose, and 1.6 mM CaCl2. The isometric tone of each vessel was recorded using LabChart Pro v7.3.7 (AD Instruments, Australia). […] Once the vessels reach a steady state contraction, increasing concentrations of acetylcholine were administered, and the response to each concentration of drug was recorded.

mPTP = assay type: in vivo; conditions: treatment of Ang II-infused mice with mito2HOBA
kidney mitochondria = test: Respiration of kidney mitochondria from angiotensin II-infused mice (respiratory control ratio); assay type: in vivo, mouse; conditions: Ang II plus mito2HOBA
Protocol: (§2) FIGS. 13A-B show mito2HOBA reduces mPTP opening and prevents mitochondrial dysfunc¬tion. C57B1/6J mice were infused with Ang II ([…]) and mito2HOBA in the drinking water (0.1 g/L). Following 14 days of Ang II infusion the animals were sacrificed and kidneys were isolated for mitochondrial studies. Addition of CaCl2 to mitochondria above Ca2+ retention capacity led to mPTP opening and mitochondria swelling. 71 Mitochondria isolated from Ang II-infused mice had significant reduction in Ca2+ capacity due to increased mPTP opening and CypD inhibitor Cyclosporine A (CsA) rescued Ca2+ retention capacity (A). Respiratory control ratio (State 3/State 4) was measured in isolated kidney mitochondria with glutamate and malate (B). Control level is 100%. (C) Renal ATP was measured in freshly isolated tissue by luciferase-based luminescent assay. 72 Results are mean±SEM. *P<0.01 vs Sham, **P<0.01 vs Angiotensin II (n=5).
The following respiration medium was used (in mM): 125 mM KCl, 10 mM MOPS (pH 7.2), 2 mM MgCl2, 2 mM KH2PO4, 10 mM NaCl, 1 mM EGTA, 0.7 mM CaCl2, 10 mM glutamate and 2 mM malate. […] Respiratory control ratio was calculated as the rate ratio State 3 to State 4, where State 4 is the rate after ADP phosphorylation.

renal ATP = test: ATP levels in kidney tissue of angiotensin II-infused mice; assay type: in vivo, mouse; conditions: Ang II plus mito2HOBA
Protocol: as §2
ATP concentration in the kidney tissue was measured by luminescent ATP detection assay kit (Abcam; Cat #ab113849). Luminescence signals were read using a Biotek Synergy H1 plate reader. Luminescence units were calculated as μmol/mg protein based on the ATP calibration curve and protein concentration measured by the Bradford method.

complex I/complex II = conditions: kidney mitochondria after LPS treatment, mito2HOBA supplementation
Protocol: Three months old C57BL/6J mice (25-28 g) were supplemented with mito2HOBA (drinking water, 0.1 g/L) for 72 hours prior to LPS injection (25 μg/g). Complex I/Complex II activity ratio is expressed as a % compared to Control (100%). […] Data are mean±STD *P<0.01 vs LPS (n=6), *P<0.01 vs LPS (n=10).
Forty C57BL/6J 3-month old mice were equally divided in four groups: Sham (Control), LPS-injected mice (LPS), mice supplemented with mito2HOBA (0.1 g/Liter) in the drinking water (mito2HOBA), and LPS-injected mice pretreated with mito2HOBA in the drinking water (LPS+mito2HOBA). […]
Mitochondrial complex I and complex II activities were evaluated after 24 hours of LPS injection as described above. […]
Respiration rates were measured using Fluorescence Lifetime Micro Oxygen Monitoring System (Instech Laboratories, Inc.). […] OXPHOS specific enzyme activities in submitochondrial particles (SMP) were measured using a Varian Cary 300 Bio UV/Vis spectrophotometer with temperature controlling cell holder. […] Complex I activity was monitored in triplicate samples as the reduction of 10 μM decylubiquinone at 272 nm by 15 μg of mitochondrial protein with 40 μM NADH. […] Complex II activity was measured by monitoring the absorbance at 600 nm during the oxidation of 50 μM DCPIP as artificial electron acceptor by 65 μM ubiquinone in presence of 2 mM KCN and 2 μg/ml rotenone and antimycin A.

[2] = system: kidney (renal cortex and medulla); test: Kidney histological analyses in LPS model
Protocol: Three months old C57BL/6J mice (25-28 g) were supplemented with mito2HOBA (drinking water, 0.1 g/L) for 72 hours prior to LPS injection (25 μg/g). […] (C) Histopathological scores of renal injuries as described in methods section. […] Data are mean±STD *P<0.01 vs LPS (n=6), *P<0.01 vs LPS (n=10).
FIGS. 6A-H show histological analysis of cellular injury in kidneys of control, mito2HOBA supplemented, LPS-injected and LPS+mito2HOBA-treated mice. Representative sections from control mice show normal glomeruli (g), proximal tubules (P), and distal tubules (*) in the cortex (A) and medulla (B).
Kidneys were harvested from mice and placed immediately in 10% formalin. Following fixation, kidneys were washed with saline, placed in 70% ethanol, and processed in the following sequence: 70% ethanol; 80% ethanol; 95% ethanol; 100% ethanol; 100% xylene. Then kidneys were embedded in POLY/Fin paraffin (ThermoFisher). Five-μm sections were cut using a Leitz 1512 microtome and were mounted on glass slides. Sections were stained with hematoxylin and eosin and were viewed using an Olympus IX70 microscope. Images were captured with a Jenoptix Progress C12 digital camera. Histopathological scores of kidneys were measured as follows: (0) No tubular injury; (1) <10% tubules injured; (2) 10-25% tubules injured; (3) 25-50% tubules injured; (4) 50-75% tubules injured; (5) >75% tubules injured.

[3] = kidney and heart mitochondria, drinking water 0.1 g/L for 5-days
[4] = LPS plus mito2HOBA vs LPS alone

NCc1ccc(OCCCC[P+](c2ccccc2)(c2ccccc2)c2ccccc2)cc1O [mito2HOBA]
level in the mitochondrial fraction [1, 3]: μM levels | share accumulated in the mitochondrial fraction [1, 3]: 80% | accumulation in the mitochondria of multiple organs ([1]; kidney, heart and liver): robustly accumulated | aortic cellular superoxide (aortic superoxide; DHE, % compared to Sham control, Ang II plus mito2HOBA (Ang II alone 217%)): 152% | increase in aortic mitochondrial superoxide (aortic superoxide; mitoSOX, Ang II plus mito2HOBA): completely prevented | endothelial nitric oxide (endothelial nitric oxide): completely prevented the decline | endothelial-dependent relaxation (mouse aortic rings): preserved | renal mitochondrial Ca2+-retention capacity (mPTP): completely prevented decline | mitochondrial respiration supported by glutamate plus malate (kidney mitochondria): preserved | decrease in renal ATP levels (renal ATP): prevented | complex I/complex II activity ratio (complex I/complex II): completely preserved | renal cortex injury ([2]; LPS plus mito2HOBA): the cortex appeared normal | histopathological scores of renal injuries [2, 4]: significant reduction in cellular injury | renal medulla injury [2, 4]: the extent and degree of injury was less | kidney histology, mito2HOBA alone ([2]; mice supplemented with mito2HOBA without LPS): appeared normal
